# Experiments:
# [1] = system: Pseudomonas aeruginosa; assay: Growth inhibition of Pseudomonas aeruginosa MH602 at 1 mM after 24 hrs relative to control; conditions: MH602, 24 h, read-out: GI
# [2] = system: Pseudomonas aeruginosa PA14; assay: Inhibition of quorum sensing-regulated biofilm formation in Pseudomonas aeruginosa PA14 at 2 mM after overnight incubation by crystal violet staining based assay relative to control
# [3] = system: Escherichia coli; assay: Growth inhibition of Escherichia coli MT102 at 2 mM after 24 hrs relative to control; conditions: MT102, 24 h, read-out: GI
# [4] = system: Pseudomonas aeruginosa; assay: Inhibition of LasR-dependent quorum sensing activity in Pseudomonas aeruginosa MH602 harboring GFP-fused […] LasB promoter assessed as inhibition of 3-oxo-dodecanoyl HSL-induced GFP expression at 2 mM measured after 8 hrs by fluorescence assay relative to control
# [5] = system: Escherichia coli; assay: Growth inhibition of Escherichia coli MT102 at 500 uM after 8 hrs relative to control; conditions: MT102, 8 h, read-out: GI
# [6] = system: Escherichia coli; assay: Inhibition of LuxR-dependent quorum sensing activity in Escherichia coli MT102 harboring pJBA132 assessed as inhibition of OHHL-induced GFP expression at 1 mM measured after 8 hrs by fluorescence assay relative to control
# [7] = system: Escherichia coli; assay: Inhibition of LuxR-dependent quorum sensing activity in Escherichia coli MT102 harboring pJBA132 assessed as inhibition of OHHL-induced GFP expression at 2 mM measured after 24 hrs by fluorescence assay relative to control
# [8] = system: Escherichia coli; assay: Inhibition of LuxR-dependent quorum sensing activity in Escherichia coli MT102 harboring pJBA132 assessed as inhibition of OHHL-induced GFP expression at 500 uM measured after 24 hrs by fluorescence assay relative to control
# [9] = system: Pseudomonas aeruginosa PA14; assay: Inhibition of quorum sensing-regulated pyocyanin production in Pseudomonas aeruginosa PA14 at 2 mM after 24 hrs relative to control
# [10] = system: Pseudomonas aeruginosa; assay: Inhibition of LasR-dependent quorum sensing activity in Pseudomonas aeruginosa MH602 harboring GFP-fused […] LasB promoter assessed as inhibition of 3-oxo-dodecanoyl HSL-induced GFP expression at 500 uM measured after 24 hrs by fluorescence assay relative to control
# [11] = system: Escherichia coli; assay: Growth inhibition of Escherichia coli MT102 at 500 uM after 24 hrs relative to control; conditions: MT102, 24 h, read-out: GI
# [12] = system: Escherichia coli; assay: Growth inhibition of Escherichia coli MT102 at 2 mM after 8 hrs relative to control; conditions: MT102, 8 h, read-out: GI
# [13] = system: Escherichia coli; assay: Growth inhibition of Escherichia coli MT102 at 1 mM after 8 hrs relative to control; conditions: MT102, 8 h, read-out: GI
# [14] = system: Escherichia coli; assay: Inhibition of LuxR-dependent quorum sensing activity in Escherichia coli MT102 harboring pJBA132 assessed as inhibition of OHHL-induced GFP expression at 500 uM measured after 8 hrs by fluorescence assay relative to control
# [15] = system: Pseudomonas aeruginosa; assay: Inhibition of LasR-dependent quorum sensing activity in Pseudomonas aeruginosa MH602 harboring GFP-fused […] LasB promoter assessed as inhibition of 3-oxo-dodecanoyl HSL-induced GFP expression at 500 uM measured after 8 hrs by fluorescence assay relative to control
# [16] = system: Pseudomonas aeruginosa; assay: Growth inhibition of Pseudomonas aeruginosa MH602 at 2 mM after 24 hrs relative to control; conditions: MH602, 24 h, read-out: GI
# [17] = system: Pseudomonas aeruginosa; assay: Growth inhibition of Pseudomonas aeruginosa MH602 at 500 uM after 8 hrs relative to control; conditions: MH602, 8 h, read-out: GI
# [18] = system: Escherichia coli; assay: Inhibition of LuxR-dependent quorum sensing activity in Escherichia coli MT102 harboring pJBA132 assessed as inhibition of OHHL-induced GFP expression at 2 mM measured after 8 hrs by fluorescence assay relative to control
# [19] = system: Pseudomonas aeruginosa; assay: Inhibition of LasR-dependent quorum sensing activity in Pseudomonas aeruginosa MH602 harboring GFP-fused […] LasB promoter assessed as inhibition of 3-oxo-dodecanoyl HSL-induced GFP expression at 1 mM measured after 8 hrs by fluorescence assay relative to control
# [20] = system: Escherichia coli; assay: Growth inhibition of Escherichia coli MT102 at 1 mM after 24 hrs relative to control; conditions: MT102, 24 h, read-out: GI
# [21] = system: Pseudomonas aeruginosa; assay: Growth inhibition of Pseudomonas aeruginosa MH602 at 500 uM after 24 hrs relative to control; conditions: MH602, 24 h, read-out: GI
# [22] = system: Pseudomonas aeruginosa; assay: Growth inhibition of Pseudomonas aeruginosa MH602 at 1 mM after 8 hrs relative to control; conditions: MH602, 8 h, read-out: GI
# [23] = system: Pseudomonas aeruginosa; assay: Growth inhibition of Pseudomonas aeruginosa PA14 at 2 mM after 24 hrs relative to control; conditions: 2000 µM
# [24] = system: Escherichia coli; assay: Inhibition of LuxR-dependent quorum sensing activity in Escherichia coli MT102 harboring pJBA132 assessed as inhibition of OHHL-induced GFP expression at 1 mM measured after 24 hrs by fluorescence assay relative to control
# [25] = system: Pseudomonas aeruginosa; assay: Inhibition of LasR-dependent quorum sensing activity in Pseudomonas aeruginosa MH602 harboring GFP-fused […] LasB promoter assessed as inhibition of 3-oxo-dodecanoyl HSL-induced GFP expression at 2 mM measured after 24 hrs by fluorescence assay relative to control
# [26] = system: Pseudomonas aeruginosa; assay: Growth inhibition of Pseudomonas aeruginosa MH602 at 2 mM after 8 hrs relative to control; conditions: MH602, 8 h, read-out: GI
# [27] = system: Pseudomonas aeruginosa; assay: Inhibition of LasR-dependent quorum sensing activity in Pseudomonas aeruginosa MH602 harboring GFP-fused […] LasB promoter assessed as inhibition of 3-oxo-dodecanoyl HSL-induced GFP expression at 1 mM measured after 24 hrs by fluorescence assay relative to control
Structure (SMILES),inhibition at 1000 µM [1],inhibition [2],inhibition at 2000 µM [3],inhibition at 500 µM [5],inhibition [6],inhibition [7],inhibition [8],inhibition [9],inhibition [10],inhibition at 500 µM [11],inhibition at 2000 µM [12],inhibition at 1000 µM [13],inhibition [14],inhibition [15],inhibition at 2000 µM [16],inhibition at 500 µM [17],inhibition [18],inhibition at 1000 µM [20],inhibition at 500 µM [21],inhibition at 1000 µM [22],other results
CCCC(=O)N[C@H]1[C@H](OC(C)=O)O[C@H](COC(C)=O)[C@@H](OC(C)=O)[C@@H]1OC(C)=O,0%,7.8%,0%,9.4%,21.9%,23.4%,2.1%,1.5%,2.5%,3%,0%,0%,10.1%,3.6%,0%,3.4%,6.1%,5%,0%,0.9%,inhibition [4]: 10.8%; inhibition [19]: 11%; growth inhibition (GI) [23]: Non-Toxic; inhibition [24]: 4.4%; inhibition [25]: 22.2%; inhibition at 2000 µM [26]: 0%
CC(=O)OC[C@H]1O[C@@H](OC(C)=O)[C@H](NC(=O)Cc2ccc(Br)cc2)[C@@H](OC(C)=O)[C@@H]1OC(C)=O,0%,26.2%,0%,0%,5.1%,71.2%,8.5%,0.8%,11.2%,0%,0%,0%,8.4%,4.4%,0%,0%,8.1%,0%,0%,0%,inhibition [4]: 3.2%; inhibition [27]: 10%; inhibition [19]: 6.8%; growth inhibition (GI) [23]: Non-Toxic; inhibition [24]: 36.1%; inhibition [25]: 13.1%; inhibition at 2000 µM [26]: 0%
CC(=O)OC[C@H]1O[C@@H](OC(C)=O)[C@H](NC(=O)Cc2ccc(Cl)cc2)[C@@H](OC(C)=O)[C@@H]1OC(C)=O,0%,17.8%,0%,0%,4.2%,16.5%,1.3%,9.3%,13.3%,0%,0%,0%,5.2%,1.4%,0%,0%,3.7%,0%,3.4%,0%,inhibition [27]: 14.8%; growth inhibition (GI) [23]: Non-Toxic; inhibition [24]: 8.5%; inhibition [25]: 16.7%; inhibition at 2000 µM [26]: 0%
CCCC(=O)N[C@@H]1[C@@H](O)[C@H](O)[C@@H](CO)O[C@H]1O,0%,22.4%,10.7%,37.9%,92.7%,97.5%,46.5%,10.6%,10.7%,13.5%,83.6%,34.5%,51.7%,13.5%,4.4%,8.9%,98.4%,13.9%,5.9%,0%,inhibition [4]: 79.1%; inhibition [19]: 22.5%; growth inhibition (GI) [23]: Non-Toxic; inhibition [24]: 93.5%; inhibition [25]: 13.4%; inhibition at 2000 µM [26]: 29.8%
